Laboratory results taken from patent US8193191B2, “Urotensin II receptor antagonists” (Janssen Pharmaceutica N.V., priority 2006, dated 2012).
Where two headings read alike, the source gives them in different places.

How the values were obtained:
[1] = tested on: isolated arterial rings of rats; settings: read-out: EC50 of contraction; cited from earlier work
[2] = tested on: isolated arterial rings of humans; settings: read-out: EC50 of contraction; cited from earlier work
[3] = target: T1, rat GPR14 (U-II receptor) (Rattus norvegicus, UniProt P49684); settings: agonist peptide, CHO cells transfected with rat GPR14; read-out: FLIPR EC50; cited from earlier work
T1 construct: expressed in transfected cells
T1 sequence (P49684 1-386): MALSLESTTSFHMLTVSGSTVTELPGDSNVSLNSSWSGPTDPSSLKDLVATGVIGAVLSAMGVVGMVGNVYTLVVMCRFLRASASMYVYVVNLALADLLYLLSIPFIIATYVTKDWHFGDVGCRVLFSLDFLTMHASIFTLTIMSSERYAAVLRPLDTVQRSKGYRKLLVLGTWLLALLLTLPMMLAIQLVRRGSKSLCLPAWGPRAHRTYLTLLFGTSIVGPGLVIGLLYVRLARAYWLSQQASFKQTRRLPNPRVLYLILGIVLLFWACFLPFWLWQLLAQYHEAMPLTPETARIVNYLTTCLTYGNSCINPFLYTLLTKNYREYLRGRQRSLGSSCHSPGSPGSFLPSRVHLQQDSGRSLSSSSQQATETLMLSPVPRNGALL

rU-II receptor = target: T2, rU-II receptor (Rattus norvegicus, UniProt P49684); settings: agonist peptide; cited from earlier work
T2 sequence (P49684 1-386): T1 sequence (P49684 1-386)

[4] = target: T1, rat GPR14 (U-II receptor); test: Rat UII Calcium Mobilization FLIPR Assay; assay type: cell-based; settings: average value for the compound tested; read-out: Rat UII FLIPR Average IC50
Summary of the method: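 CHO cells stably expressing rat U-II receptor, seeded 24 h before assay, were loaded with FLIPR calcium dye in HBSS/20 mM HEPES/0.1% BSA/2.5 mM probenecid, pH 7.4, for 1 h at 37° C. Calcium mobilization then read by FLIPR at 23° C.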

[5] = target: T3, Human UII receptor, 6D9 human rhabdomyosarcoma cells (Homo sapiens, UniProt Q9UKP6); test: Human UII Calcium Mobilization Assay; assay type: cell-based; settings: average value, FLIPR TETRA, read-out: Human UII Ca^+ Mobilization Average IC50
T3 construct: 6D9: isolated by dilution subcloning of RMS13 cells, ATCC® Number: CRL-2061; host or cells: 6D9 human rhabdomyosarcoma cells (subclone of RMS13)
T3 sequence (Q9UKP6 1-389): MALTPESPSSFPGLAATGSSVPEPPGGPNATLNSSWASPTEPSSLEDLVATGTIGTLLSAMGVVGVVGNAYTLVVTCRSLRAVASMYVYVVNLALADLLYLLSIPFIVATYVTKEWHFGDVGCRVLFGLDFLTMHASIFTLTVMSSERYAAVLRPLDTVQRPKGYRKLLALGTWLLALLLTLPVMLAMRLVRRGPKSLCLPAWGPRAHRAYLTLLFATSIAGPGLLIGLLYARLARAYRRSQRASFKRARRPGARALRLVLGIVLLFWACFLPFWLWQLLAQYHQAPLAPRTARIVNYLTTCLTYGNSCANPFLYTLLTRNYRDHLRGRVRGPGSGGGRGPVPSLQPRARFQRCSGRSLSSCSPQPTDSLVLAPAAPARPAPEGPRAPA
Summary of the method: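 6D9 rhabdomyosarcoma cells loaded 45 min at 37° C with calcium dye (1.25 mM probenecid, 0.01% FBS, HBSS/20 mM HEPES). Antagonist and U-II agonist added at room temperature; FLIPR fluorescence read over 4 min; EC50/IC50 fitted. DMSO ≤0.1% final.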

[6] = target: T4, endogenous human UII receptor (Homo sapiens, UniProt Q9UKP6); test: Human Radioligand Binding Assay ((^125I)-U-II binding to human skeletal muscle myoblasts)
T4 sequence (Q9UKP6 1-389): T3 sequence (Q9UKP6 1-389)

[7] = read-out: Human UII Average Binding Ki, average value, (^125I)-U-II binding to human skeletal muscle myoblasts (HSMM), 25° C., 3 h

Compound | EC50 [1] [nM] | EC50 [2] [nM] | EC50 [3] [nM] | Ki (rU-II receptor) [nM] | IC50 [4] [nM] | IC50 [5] [nM] | Ki [6] [nM] | Ki [6, 7] [nM]
AGTAD-cyclo(CFWKYC)—V [Goby U-II, Urotensin-II isolated from the urophysis of the goby fish (Gillichthys mirabilis) as a 12-mer] | < 1 | < 1 | – | – | – | – | – | –
Acetyl-cyclic[Cys-Phe-Trp-Lys-(2-Nal)-Cys]-NH2 [(Ac)—CFWK(2-NaI)C—NH2, agonist cyclic peptide used at 1 nM to induce Ca2+ mobilization in the rat UII FLIPR assay] | – | – | 0.54 ± 0.2 | 0.12 ± 0.05 | – | – | – | –
COc1ccc(C(CCCNS(=O)(=O)c2c(C)nn(C)c2C)N2C(=O)c3cccc(N4CCN([C@H](C)c5ccccc5)CC4)c3C2=O)cc1OC (stereo partly drawn) [Cpd 91, 1,3,5-trimethyl-1H-pyrazole-4-sulfonic acid (4-(3,4-dimethoxy-phenyl)-4-{1,3-dioxo-4-[4-(1R)-(1-phenyl-ethyl)-piperazin-1-yl]-1,3-dihydro-isoindol-2-yl}-butyl)-amide] | – | – | – | – | 15 | 310 | 150 | –
CCN1CCN(c2cccc3c2C(=O)N(C(CC2CCN(S(=O)(=O)c4cccs4)CC2)c2ccc(OC)c(OC)c2)C3=O)CC1 (stereo not shown) [Cpd 234, 2-{1-(3,4-dimethoxy-phenyl)-2-[1-(thiophene-2-sulfonyl)-piperidin-4-yl]-ethyl}-4-(4-ethyl-piperazin-1-yl)-isoindole-1,3-dione] | – | – | – | – | 51 | 1700 | 280 | –
CCC(=O)NCCC[C@H](c1ccc(OC)c(OC)c1)N1C(=O)c2cccc(N3CCN([C@H](C)c4ccccc4)CC3)c2C1=O [Cpd 180, (R)-N-(4-(3,4-dimethoxy-phenyl)-4-{1,3-dioxo-4-[4-(1R)-(1-phenyl-ethyl)-piperazin-1-yl]-1,3-dihydro-isoindol-2-yl}-butyl)-propionamide] | – | – | – | – | 8.8 | 570 | 23 | –
COc1ccc(C(CCCNS(=O)(=O)c2cn(C)c(C)n2)N2C(=O)c3cccc(N4CCN([C@H](C)c5ccccc5)CC4)c3C2=O)cc1OC (stereo partly drawn) [Cpd 114, 1,2-dimethyl-1H-imidazole-4-sulfonic acid (4-(3,4-dimethoxy-phenyl)-4-{1,3-dioxo-4-[4-(1R)-(1-phenyl-ethyl)-piperazin-1-yl]-1,3-dihydro-isoindol-2-yl}-butyl)-amide] | – | – | – | – | 17 | 470 | 11 | –
COc1ccc(C(CCCNS(=O)(=O)c2sc(NC(C)=O)nc2C)N2C(=O)c3cccc(N4CCN([C@H](C)c5ccccc5)CC4)c3C2=O)cc1OC (stereo partly drawn) [Cpd 97, N-[5-(4-(3,4-dimethoxy-phenyl)-4-{1,3-dioxo-4-[4-(1R)-(1-phenyl-ethyl)-piperazin-1-yl]-1,3-dihydro-isoindol-2-yl}-butylsulfamoyl)-4-methyl-thiazol-2-yl]-acetamide] | – | – | – | – | 63 | 700 | 180 | –
COc1ccc([C@@H](CCCNS(=O)(=O)c2cccs2)N2C(=O)c3cccc(N4CCN(C)CC4)c3C2=O)cc1OC [Cpd 169, (R)-thiophene-2-sulfonic acid {4-(3,4-dimethoxy-phenyl)-4-[4-(4-methyl-piperazin-1-yl)-1,3-dioxo-1,3-dihydro-isoindol-2-yl]-butyl}-amide] | – | – | – | – | 16 | 220 | – | 59
COc1ccc([C@@H](CCCNS(=O)(=O)c2c(C)n[nH]c2C)N2C(=O)c3cccc(N4CCN([C@H](C)c5ccccc5)CC4)c3C2=O)cc1OC [Cpd 125, (R)-3,5-dimethyl-1H-pyrazole-4-sulfonic acid (4-(3,4-dimethoxy-phenyl)-4-{1,3-dioxo-4-[4-(1R)-(1-phenyl-ethyl)-piperazin-1-yl]-1,3-dihydro-isoindol-2-yl}-butyl)-amide] | – | – | – | – | 11 | 47 | – | 13
COc1ccc([C@@H](CCCNC(=O)c2c(C)nn(C)c2C)N2C(=O)c3cccc(N4CCN([C@H](C)c5ccccc5)CC4)c3C2=O)cc1OC [Cpd 184, (R)-1,3,5-trimethyl-1H-pyrazole-4-carboxylic acid (4-(3,4-dimethoxy-phenyl)-4-{1,3-dioxo-4-[4-(1R)-(1-phenyl-ethyl)-piperazin-1-yl]-1,3-dihydro-isoindol-2-yl}-butyl)-amide] | – | – | – | – | 15 | 1100 | 56 | –
COc1ccc([C@@H](CCCNC(=O)[C@@H]2CCCN2C)N2C(=O)c3cccc(N4CCN([C@H](C)c5ccccc5)CC4)c3C2=O)cc1OC [Cpd 191, (S)-1-methyl-pyrrolidine-2-carboxylic acid (R)-(4-(3,4-dimethoxy-phenyl)-4-{1,3-dioxo-4-[4-(1R)-(1-phenyl-ethyl)-piperazin-1-yl]-1,3-dihydro-isoindol-2-yl}-butyl)-amide] | – | – | – | – | 31 | 1500 | 69 | –
COc1ccc([C@@H](CCNC(=O)c2ccncc2)N2C(=O)c3cccc(N4CCN([C@H](C)c5ccccc5)CC4)c3C2=O)cc1OC [Cpd 221, (R)-N-(3-(3,4-dimethoxy-phenyl)-3-{1,3-dioxo-4-[4-(1R)-(1-phenyl-ethyl)-piperazin-1-yl]-1,3-dihydro-isoindol-2-yl}-propyl)-isonicotinamide] | – | – | – | – | 15 | 910 | 72 | –
